In publication PMC11396667, “Design, Synthesis, and Anticancer and Antibacterial Activities of Quinoline-5-Sulfonamides” (Molecules, 2024):
≈ marks a conversion by molar mass, not a printed value.

Experiments:
[1] = test system: methicillin-resistant S. aureus SA 3202; parameters: method as in PMID 25692135; conditions: isolate classified as vancomycin-susceptible (VA2-MRSA); ref [76]; cited from earlier work
[2] = test system: methicillin-resistant S. aureus SA 630; parameters: method as in PMID 25692135; conditions: isolate classified as vancomycin-susceptible (VA2-MRSA); ref [76]; cited from earlier work
[3] = test system: methicillin-resistant S. aureus SA 630; assay: MBC, agar aliquot subculture method, MRSA2; assay type: cell-based; conditions: Staphylococcus aureus; 99.9% decrease in CFU, 24 h, 37 °C
Text: (§1) The activities of the individual derivatives were expressed as minimum inhibitory concentrations (MICs) and minimum bactericidal concentrations (MBCs) and are shown in Table 3 together with the values of the antibiotics used as standards for comparison. […] MBC values of bactericidal compounds are indicated in bold in Table 3.
(§2) For the above-mentioned strains/isolates, the agar aliquot subculture method was used as a test for bactericidal agents. After the MIC value determination, the inoculum was transferred to CaMH (Oxoid) for staphylococci, and BHI (Oxoid) for enterococci medium using a multipoint inoculator. The plates were incubated in a thermostat at 37 °C for 24 h. The lowest concentration of test compound at which ≤5 colonies were obtained was then evaluated as MBC, corresponding to a 99.9% decrease in CFU relative to the original inoculum.

[4] = test system: Enterococcus faecalis ATCC 29212; assay: MIC, microtitration broth method, EF; assay type: cell-based; conditions: ATCC29212, 24 h, 37 °C, BHI broth
Text: (§3) Since there is a general decrease in immunity during the treatment of oncological patients, i.e., patients are more susceptible to infectious diseases, it is advantageous if anticancer agents show antimicrobial properties at the same time. Therefore, the effects of the compounds were also investigated against Gram-positive bacteria. For this purpose, the susceptible collection strains of aerobic Staphylococcus aureus ATCC 29213 and facultatively aerobic Enterococcus faecalis ATCC 29212 and resistant clinical isolates of methicillin-resistant S. aureus (MRSA) SA 3202, SA 630 carrying the mecA gene, and vancomycin-resistant isolates of E. faecalis (VRE) 342B, 368, and 725B carrying the vanA gene were selected. Thus, the selection of the studied bacterial strains was adopted following the CLSI ([…]) international reference methodologies.
(§4) The in vitro antibacterial activity of the synthesized compounds was evaluated against representatives of multidrug-resistant bacteria, […] clinical isolates of methicillin-resistant S. aureus: clinical isolates of human origin, MRSA SA 3202, and MRSA SA 630 (National Institute of Public Health, Prague, Czech Republic), carrying the mecA gene. These two clinical isolates were classified as vancomycin-susceptible (but with a higher MIC of vancomycin equal to 2 μg/mL (VA2-MRSA). Vancomycin- and methicillin-susceptible S. aureus ATCC 29213 and vancomycin-susceptible Enterococcus faecalis ATCC 29212, obtained from the American Type Culture Collection, were used as the reference and quality control strains. Three vanA gene-carrying vancomycin-resistant isolates of E. faecalis (VRE 342B, VRE 368, VRE 725B) (Department of Infectious Diseases and Microbiology, Faculty of Veterinary Medicine, University of Veterinary Sciences Brno, Czech Republic) were provided by Oravcova et al..
(§5) The minimum inhibitory concentrations (MICs) were evaluated by the microtitration broth method according to the CLSI, with some modifications. The compounds were dissolved in DMSO (Sigma, St. Louis, MO, USA) to obtain a concentration of […] and diluted in a microtitration plate in an appropriate medium, i.e., Cation-Adjusted Mueller–Hinton Broth (CaMH, Oxoid, Basingstoke, UK) for staphylococci, and Brain Heart Infusion Broth (BHI, Oxoid) for enterococci to reach the final concentration of 256–0.125 µg/mL. Microtiter plates were inoculated with test microorganisms so that the final concentration of bacterial cells was 10^5. Ampicillin, oxacillin, and ciprofloxacin (Sigma) were used as reference drugs. A drug-free control and a sterility control were included. The plates were incubated for 24 h at 37 °C for staphylococci and enterococci. […] The experiments were repeated three times.

[5] = test system: Staphylococcus aureus ATCC 29213; assay: MIC, microtitration broth method, SA; assay type: cell-based; conditions: ATCC29213, 24 h, 37 °C, CaMH broth
Text: as §3, §4, §5

[6] = test system: Staphylococcus aureus ATCC 29213; assay: MBC, agar aliquot subculture method, SA; assay type: cell-based; conditions: ATCC29213, 99.9% decrease in CFU, 24 h, 37 °C
Text: as §1, §2

[7] = test system: Enterococcus faecalis ATCC 29212; assay: MBC, agar aliquot subculture method, EF; assay type: cell-based; conditions: ATCC29212, 99.9% decrease in CFU, 24 h, 37 °C
Text: as §1, §2

[8] = test system: methicillin-resistant S. aureus SA 3202; assay: MIC, microtitration broth method, MRSA1; assay type: cell-based; conditions: Staphylococcus aureus; 24 h, 37 °C, CaMH broth
Text: as §3, §4, §5

[9] = test system: S. aureus ATCC 29213; assay: MTT assay of bacterial respiratory activity; assay type: cell-based, Staphylococcus aureus; conditions: S. aureus ATCC 29213
Text: The MTT assay can be used to assess cell growth by measuring respiration. Bacterial cell respiratory activity (which is ultimately reflected in their viability) of less than 70% after exposure to the MIC values for each test compound is considered as a positive result for this test. This low level of cellular oxidative metabolism indicates inhibition of cell growth by inhibition of respiration. The lowest multiples of the MIC values by which inhibition of S. aureus ATCC 29213 viability [%] greater than 70% was achieved are shown in Table 4. […] Therefore, the antibacterial activity of the discussed compounds cannot be explained solely on the basis of respiration inhibition, so it is very difficult to draw a conclusion regarding the actual mechanism of action, since 8-HQs are multi-target agents, i.e., they affect several different targets at once (as discussed in the section dedicated to anticancer activity), which subsequently leads to the death of the treated resistant microorganisms.
Compounds were prepared as previously stated and diluted in CaMH broth for S. aureus to achieve the desired final concentrations. S. aureus bacterial suspension in sterile distilled water at 0.5 McFarland was diluted 1:3. Inocula were added to each well by multi-inoculator. Diluted mycobacteria in broth free from inhibiting compounds were used as the growth control. All compounds were prepared in duplicate. Plates were incubated at 37 °C for 24 h for S. aureus. After the incubation period, 10% well volume of MTT (3-(4,5-dimethylthiazol-2-yl)-2,5-diphenyltetrazolium bromide) reagent (Sigma) was mixed into each well and incubated at 37 °C 1 h for S. aureus. Then, 100 µL of 17% sodium dodecyl sulphate in 40% dimethylformamide was added to each well. The plates were read at 570 nm. The absorbance readings from the cells grown in the presence of the tested compounds were compared with uninhibited cell growth to determine the relative percent inhibition. The percent inhibition was determined through MTT assay. The percent viability is calculated through the comparison of a measured value and that of the uninhibited control: % viability = OD570E/OD570P × 100, where OD570E is the reading from the compound-exposed cells, while OD570P is the reading from the uninhibited cells (positive control). Cytotoxic potential is determined by a percent viability of <70% [81, 82].

[10] = test system: methicillin-resistant S. aureus SA 630; assay: MIC, microtitration broth method, MRSA2; assay type: cell-based; conditions: Staphylococcus aureus; 24 h, 37 °C, CaMH broth
Text: as §3, §4, §5

[11] = test system: methicillin-resistant S. aureus SA 3202; assay: MBC, agar aliquot subculture method, MRSA1; assay type: cell-based; conditions: Staphylococcus aureus; 99.9% decrease in CFU, 24 h, 37 °C
Text: as §1, §2

SMILES	MIC of vancomycin, MRSA SA 3202 [1]	MIC of vancomycin, MRSA SA 630 [2]	MBC [3]	MIC [4]	MIC [5]	MBC [6]	MBC [7]	MIC [8]	Conc.: lowest multiple of MIC with at least 70% inhibition of respiratory activity [9]	MIC [10]	MBC [11]
CN[C@H](CC(C)C)C(=O)N[C@H]1C(=O)N[C@@H](CC(N)=O)C(=O)N[C@H]2C(=O)N[C@H]3C(=O)N[C@H](C(=O)N[C@H](C(=O)O)c4cc(O)cc(O)c4-c4cc3ccc4O)[C@H](O)c3ccc(c(Cl)c3)Oc3cc2cc(c3O[C@@H]2O[C@H](CO)[C@@H](O)[C@H](O)[C@H]2O[C@H]2C[C@](C)(N)[C@H](O)[C@H](C)O2)Oc2ccc(cc2Cl)[C@H]1O [vancomycin]	2 µg/mL	2 µg/mL	–	–	–	–	–	–	–	–	–
CC1(C)S[C@@H]2[C@H](NC(=O)[C@H](N)c3ccccc3)C(=O)N2[C@H]1C(=O)O [AMP, ampicillin, reference compound]	–	–	> 45.8 µM	2.81 µM (≈ 0.982 µg/mL)	5.72 µM (≈ 2 µg/mL)	5.72 µM (≈ 2 µg/mL)	2.81 µM (≈ 0.982 µg/mL)	> 45.8 µM	16× MIC (>16× MBC)	> 45.8 µM	> 45.8 µM
Cc1onc(-c2ccccc2)c1C(=O)N[C@@H]1C(=O)N2[C@@H]1SC(C)(C)[C@@H]2C(=O)O [OXA, oxacillin, reference compound]	–	–	29.7 µM (≈ 11.9 µg/mL)	–	1.25 µM (≈ 0.502 µg/mL)	1.25 µM (≈ 0.502 µg/mL)	–	79.8 µM (≈ 32 µg/mL)	–	29.7 µM (≈ 11.9 µg/mL)	79.8 µM (≈ 32 µg/mL)
